In patent US10231954B2, “Neurodegenerative therapies” (LYTIX BIOPHARMA AS, priority 2014, dated 2019):

How the values were obtained:
Format in all cases: biochemical
Lck = Lck (Homo sapiens, UniProt P06239); assay: Kinase profiling Lck; details: 100 micromolar inhibitor concentration, 100 is no change; for remaining activity at 100 µM: read-out: residual kinase activity, Lck
Description: (§1) Any value less that 25 is considered to be highly significant inhibition.

SYK = SYK (Homo sapiens, UniProt P43405); assay: Kinase profiling SYK; details: 100 micromolar inhibitor concentration, 100 is no change; for remaining activity at 100 µM: read-out: residual kinase activity, SYK
Description: as §1

JNK2 = JNK2 (Homo sapiens, UniProt P45984); assay: Kinase profiling JNK2; details: 100 micromolar inhibitor concentration, 100 is no change; for remaining activity at 100 µM: read-out: residual kinase activity, JNK2
Description: as §1

JAK2 = JAK2 (Homo sapiens, UniProt O60674); assay: Kinase profiling JAK2; details: 100 micromolar inhibitor concentration, 100 is no change; for remaining activity at 100 µM: read-out: residual kinase activity, JAK2
Description: as §1

PKCa = PKCa (Homo sapiens, UniProt P17252); assay: Kinase profiling PKCa; details: 100 micromolar inhibitor concentration, 100 is no change; for remaining activity at 100 µM: read-out: residual kinase activity, PKCa
Description: as §1

p38g MAPK = molecular target: T1, p38g MAPK (Homo sapiens, UniProt P53778); assay: Kinase profiling p38g MAPK; details: 100 micromolar inhibitor concentration, 100 is no change; for remaining activity at 100 µM: read-out: residual kinase activity, p38g MAPK
T1 sequence (P53778 1-367): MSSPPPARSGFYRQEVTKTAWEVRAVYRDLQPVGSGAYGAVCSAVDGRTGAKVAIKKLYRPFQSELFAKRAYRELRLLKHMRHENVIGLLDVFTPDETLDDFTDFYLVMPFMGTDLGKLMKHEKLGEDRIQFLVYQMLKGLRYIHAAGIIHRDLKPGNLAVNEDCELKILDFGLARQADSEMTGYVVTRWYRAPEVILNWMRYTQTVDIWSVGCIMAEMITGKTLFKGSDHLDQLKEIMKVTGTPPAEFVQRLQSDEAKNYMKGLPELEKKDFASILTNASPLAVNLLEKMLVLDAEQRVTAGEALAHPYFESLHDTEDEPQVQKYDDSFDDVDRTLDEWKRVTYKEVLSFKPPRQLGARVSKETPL
Description: as §1

EPH-A2 = EPH-A2 (Homo sapiens, UniProt P29317); assay: Kinase profiling EPH-A2; details: 100 micromolar inhibitor concentration, 100 is no change; for remaining activity at 100 µM: read-out: residual kinase activity, EPH-A2
Description: as §1

SmMLCK = SmMLCK (Homo sapiens, UniProt Q15746); assay: Kinase profiling SmMLCK; details: 100 micromolar inhibitor concentration, 100 is no change; for remaining activity at 100 µM: read-out: residual kinase activity, SmMLCK
PKA = PKA (Homo sapiens, UniProt P17612); assay: Kinase profiling PKA; details: 100 micromolar inhibitor concentration, 100 is no change; for remaining activity at 100 µM: read-out: residual kinase activity, PKA
Description: as §1

CK2 = assay: Kinase profiling CK2; details: 100 micromolar inhibitor concentration; 100 is no change
Description: as §1

ERK1 = ERK1 (Homo sapiens, UniProt P27361); assay: Kinase profiling ERK1; details: 100 micromolar inhibitor concentration, 100 is no change; for remaining activity at 100 µM: read-out: residual kinase activity, ERK1
Description: as §1

DYRK1A = DYRK1A (Homo sapiens, UniProt Q13627); assay: DYRK 1A assay (kinase profiling); details: 100 micromolar inhibitor concentration, 100 is no change; for remaining activity at 100 µM: read-out: residual kinase activity, DYRK1A
Method: Assays are stopped by addition of 5 μl of 0.5 M (3%) orthophosphoric acid and then harvested onto P81 Unifilter plates with a wash buffer of 50 mM orthophosphoric acid.
as §1

HER4 = HER4 (Homo sapiens, UniProt Q15303); assay: Kinase profiling HER4; details: 100 micromolar inhibitor concentration, 100 is no change; for remaining activity at 100 µM: read-out: residual kinase activity, HER4
Description: as §1

PKBb = PKBb (Homo sapiens, UniProt P31751); assay: Kinase profiling PKBb; details: for remaining activity at 100 µM: read-out: residual kinase activity, PKBb; for residual kinase activity, PKBb: 100 micromolar inhibitor concentration, 100 is no change
Description: as §1

IGF-1R = IGF-1R (Homo sapiens, UniProt P08069); assay: Kinase profiling IGF-1R; details: 100 micromolar inhibitor concentration, 100 is no change; for remaining activity at 100 µM: read-out: residual kinase activity, IGF-1R
Description: as §1

ERK2 = ERK2 (Homo sapiens, UniProt P28482); assay: Kinase profiling ERK2; details: 100 micromolar inhibitor concentration, 100 is no change; for remaining activity at 100 µM: read-out: residual kinase activity, ERK2
Description: as §1

TTK = molecular target: T2, TTK (Homo sapiens, UniProt P33981); assay: Kinase profiling TTK; details: 100 micromolar inhibitor concentration, 100 is no change; for remaining activity at 100 µM: read-out: residual kinase activity, TTK
T2 sequence (P33981 1-857): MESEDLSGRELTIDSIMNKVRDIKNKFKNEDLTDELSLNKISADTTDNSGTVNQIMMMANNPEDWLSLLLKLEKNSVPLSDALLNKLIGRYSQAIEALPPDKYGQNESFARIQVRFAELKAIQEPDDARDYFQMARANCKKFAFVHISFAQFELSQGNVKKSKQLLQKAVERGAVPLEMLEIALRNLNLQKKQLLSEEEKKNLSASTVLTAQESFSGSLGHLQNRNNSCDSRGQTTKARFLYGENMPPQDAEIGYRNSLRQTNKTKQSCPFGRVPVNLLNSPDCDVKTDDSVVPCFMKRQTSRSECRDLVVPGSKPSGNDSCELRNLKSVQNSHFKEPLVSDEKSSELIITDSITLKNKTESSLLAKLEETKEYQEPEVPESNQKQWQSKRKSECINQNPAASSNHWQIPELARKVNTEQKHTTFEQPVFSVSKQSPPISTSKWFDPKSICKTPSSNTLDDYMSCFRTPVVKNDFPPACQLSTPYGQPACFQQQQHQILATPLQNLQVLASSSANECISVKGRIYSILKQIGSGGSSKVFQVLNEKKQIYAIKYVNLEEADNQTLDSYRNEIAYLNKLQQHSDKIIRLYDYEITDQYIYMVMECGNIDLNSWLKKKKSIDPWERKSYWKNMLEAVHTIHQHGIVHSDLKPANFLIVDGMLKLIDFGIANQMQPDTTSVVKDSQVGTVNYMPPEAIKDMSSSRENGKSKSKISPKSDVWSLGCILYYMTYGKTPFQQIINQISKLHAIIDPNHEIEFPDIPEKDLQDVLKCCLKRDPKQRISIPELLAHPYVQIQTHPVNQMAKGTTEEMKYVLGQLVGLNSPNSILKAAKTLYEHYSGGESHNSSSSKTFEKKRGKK
Description: as §1

RSK1 = RSK1 (Homo sapiens, UniProt Q15418); assay: Kinase profiling RSK1; details: 100 micromolar inhibitor concentration, 100 is no change; for remaining activity at 100 µM: read-out: residual kinase activity, RSK1
Description: as §1

MSK1 = MSK1 (Homo sapiens, UniProt O75582); assay: Kinase profiling MSK1; details: 100 micromolar inhibitor concentration, 100 is no change; for remaining activity at 100 µM: read-out: residual kinase activity, MSK1
Description: as §1

NEK6 = NEK6 (Homo sapiens, UniProt Q9HC98); assay: Kinase profiling NEK6; details: 100 micromolar inhibitor concentration, 100 is no change; for remaining activity at 100 µM: read-out: residual kinase activity, NEK6
Description: as §1

p38d MAPK = molecular target: T3, p38d MAPK (Homo sapiens, UniProt O15264); assay: Kinase profiling p38d MAPK; details: 100 micromolar inhibitor concentration, 100 is no change; for remaining activity at 100 µM: read-out: residual kinase activity, p38d MAPK
T3 sequence (O15264 1-365): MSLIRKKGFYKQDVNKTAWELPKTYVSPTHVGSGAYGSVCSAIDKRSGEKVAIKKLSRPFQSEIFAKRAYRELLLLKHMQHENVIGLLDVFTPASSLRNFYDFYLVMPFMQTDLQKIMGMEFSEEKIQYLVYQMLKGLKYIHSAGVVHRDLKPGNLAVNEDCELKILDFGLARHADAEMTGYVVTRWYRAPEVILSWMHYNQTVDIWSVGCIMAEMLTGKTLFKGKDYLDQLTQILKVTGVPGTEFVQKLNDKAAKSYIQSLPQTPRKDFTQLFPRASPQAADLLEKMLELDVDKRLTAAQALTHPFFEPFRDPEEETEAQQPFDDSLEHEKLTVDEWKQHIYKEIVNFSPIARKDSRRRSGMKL
Description: as §1

Chain of ERK1 (P27361 whole entry, species assumed): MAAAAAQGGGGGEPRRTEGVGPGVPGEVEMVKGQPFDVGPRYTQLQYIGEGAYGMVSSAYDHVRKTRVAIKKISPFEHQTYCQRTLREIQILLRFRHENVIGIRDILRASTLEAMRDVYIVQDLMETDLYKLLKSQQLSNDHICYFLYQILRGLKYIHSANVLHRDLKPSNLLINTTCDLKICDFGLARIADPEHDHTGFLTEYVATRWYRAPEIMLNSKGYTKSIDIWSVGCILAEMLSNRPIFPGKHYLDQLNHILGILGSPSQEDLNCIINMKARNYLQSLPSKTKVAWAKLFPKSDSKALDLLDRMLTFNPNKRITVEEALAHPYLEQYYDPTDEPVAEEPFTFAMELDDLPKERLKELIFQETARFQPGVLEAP
Chain of Lck (P06239 whole entry, species assumed): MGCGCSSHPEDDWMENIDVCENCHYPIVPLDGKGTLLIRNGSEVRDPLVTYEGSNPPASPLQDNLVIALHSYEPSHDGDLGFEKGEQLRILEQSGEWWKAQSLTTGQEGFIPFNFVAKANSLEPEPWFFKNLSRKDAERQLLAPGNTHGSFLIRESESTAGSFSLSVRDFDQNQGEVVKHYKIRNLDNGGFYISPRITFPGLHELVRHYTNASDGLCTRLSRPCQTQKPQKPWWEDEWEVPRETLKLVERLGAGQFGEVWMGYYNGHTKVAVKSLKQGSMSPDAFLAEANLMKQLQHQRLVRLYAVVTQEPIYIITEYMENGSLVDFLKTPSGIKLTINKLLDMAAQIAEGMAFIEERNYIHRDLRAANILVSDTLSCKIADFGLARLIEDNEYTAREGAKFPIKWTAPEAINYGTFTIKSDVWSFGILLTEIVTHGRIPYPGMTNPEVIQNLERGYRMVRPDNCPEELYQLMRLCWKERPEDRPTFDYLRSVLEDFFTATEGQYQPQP
Chain of JNK2 (P45984 whole entry, species assumed): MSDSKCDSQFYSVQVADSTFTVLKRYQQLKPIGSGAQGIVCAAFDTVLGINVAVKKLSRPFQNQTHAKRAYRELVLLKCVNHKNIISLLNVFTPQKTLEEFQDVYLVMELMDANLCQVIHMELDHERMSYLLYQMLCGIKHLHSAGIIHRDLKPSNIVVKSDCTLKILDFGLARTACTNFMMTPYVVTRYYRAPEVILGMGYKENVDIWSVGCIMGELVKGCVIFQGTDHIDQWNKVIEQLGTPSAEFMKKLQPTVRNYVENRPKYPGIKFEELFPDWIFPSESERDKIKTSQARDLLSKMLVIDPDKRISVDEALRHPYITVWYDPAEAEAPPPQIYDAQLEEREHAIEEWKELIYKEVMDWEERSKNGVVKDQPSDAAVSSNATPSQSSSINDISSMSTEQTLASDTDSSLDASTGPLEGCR
Chain of SmMLCK (Q15746 923-1914): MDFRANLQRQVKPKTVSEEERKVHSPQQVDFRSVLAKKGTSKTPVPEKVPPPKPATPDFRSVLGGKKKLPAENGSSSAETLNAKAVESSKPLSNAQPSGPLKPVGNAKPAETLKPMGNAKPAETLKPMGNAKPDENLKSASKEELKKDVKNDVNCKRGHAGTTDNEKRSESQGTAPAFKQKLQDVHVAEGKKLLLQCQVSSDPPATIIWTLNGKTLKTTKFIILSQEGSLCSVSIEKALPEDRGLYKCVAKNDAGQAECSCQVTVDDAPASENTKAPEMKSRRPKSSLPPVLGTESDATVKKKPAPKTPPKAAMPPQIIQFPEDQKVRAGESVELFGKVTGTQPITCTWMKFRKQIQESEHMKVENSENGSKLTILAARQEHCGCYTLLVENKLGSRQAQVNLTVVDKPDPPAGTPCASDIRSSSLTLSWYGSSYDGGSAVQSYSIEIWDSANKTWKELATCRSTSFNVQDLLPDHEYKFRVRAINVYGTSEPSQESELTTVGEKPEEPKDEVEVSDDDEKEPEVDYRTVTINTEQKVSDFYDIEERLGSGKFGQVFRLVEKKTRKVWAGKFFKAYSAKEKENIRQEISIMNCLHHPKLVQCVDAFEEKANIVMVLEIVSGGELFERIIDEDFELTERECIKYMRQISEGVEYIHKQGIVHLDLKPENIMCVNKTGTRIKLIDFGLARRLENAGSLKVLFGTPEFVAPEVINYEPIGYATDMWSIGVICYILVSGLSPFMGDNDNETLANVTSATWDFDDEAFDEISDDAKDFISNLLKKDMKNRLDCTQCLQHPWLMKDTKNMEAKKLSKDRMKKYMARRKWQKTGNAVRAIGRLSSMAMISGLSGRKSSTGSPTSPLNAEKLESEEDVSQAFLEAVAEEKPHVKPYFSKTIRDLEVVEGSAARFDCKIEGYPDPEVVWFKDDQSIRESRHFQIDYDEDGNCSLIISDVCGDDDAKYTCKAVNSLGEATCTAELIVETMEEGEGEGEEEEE
Chain of HER4 (Q15303 26-1308, species assumed): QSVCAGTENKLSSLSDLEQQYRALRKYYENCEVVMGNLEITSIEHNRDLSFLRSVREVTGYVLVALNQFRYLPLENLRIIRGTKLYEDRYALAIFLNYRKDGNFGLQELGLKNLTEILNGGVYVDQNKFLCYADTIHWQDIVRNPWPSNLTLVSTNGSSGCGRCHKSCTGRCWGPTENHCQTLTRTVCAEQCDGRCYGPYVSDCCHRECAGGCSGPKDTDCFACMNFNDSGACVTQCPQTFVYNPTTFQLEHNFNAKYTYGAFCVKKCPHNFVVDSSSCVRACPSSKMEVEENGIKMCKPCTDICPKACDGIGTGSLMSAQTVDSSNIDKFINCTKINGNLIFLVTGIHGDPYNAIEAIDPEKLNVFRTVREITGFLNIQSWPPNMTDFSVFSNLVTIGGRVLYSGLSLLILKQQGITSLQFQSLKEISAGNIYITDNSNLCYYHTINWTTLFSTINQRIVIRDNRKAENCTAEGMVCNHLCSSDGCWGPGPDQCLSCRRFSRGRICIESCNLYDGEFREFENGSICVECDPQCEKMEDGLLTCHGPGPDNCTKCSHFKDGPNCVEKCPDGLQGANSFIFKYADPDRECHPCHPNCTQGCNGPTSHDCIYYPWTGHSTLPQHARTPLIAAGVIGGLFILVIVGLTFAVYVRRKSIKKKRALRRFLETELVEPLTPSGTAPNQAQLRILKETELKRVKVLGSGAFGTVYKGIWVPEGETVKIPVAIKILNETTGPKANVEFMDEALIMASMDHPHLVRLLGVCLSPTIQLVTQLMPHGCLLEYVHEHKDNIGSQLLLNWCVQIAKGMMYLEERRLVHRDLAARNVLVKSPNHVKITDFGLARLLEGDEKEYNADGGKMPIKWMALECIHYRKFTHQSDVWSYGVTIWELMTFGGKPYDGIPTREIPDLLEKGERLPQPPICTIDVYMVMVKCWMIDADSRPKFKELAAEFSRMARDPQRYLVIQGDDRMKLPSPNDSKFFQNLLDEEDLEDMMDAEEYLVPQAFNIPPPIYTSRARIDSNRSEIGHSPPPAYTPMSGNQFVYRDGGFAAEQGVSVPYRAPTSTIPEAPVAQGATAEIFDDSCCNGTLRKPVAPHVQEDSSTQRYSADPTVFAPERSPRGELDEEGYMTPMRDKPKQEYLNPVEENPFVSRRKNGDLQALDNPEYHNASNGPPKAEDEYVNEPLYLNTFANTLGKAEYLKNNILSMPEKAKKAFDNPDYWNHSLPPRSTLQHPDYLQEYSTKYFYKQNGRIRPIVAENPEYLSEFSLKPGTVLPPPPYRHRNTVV
Chain of MSK1 (O75582 whole entry, species assumed): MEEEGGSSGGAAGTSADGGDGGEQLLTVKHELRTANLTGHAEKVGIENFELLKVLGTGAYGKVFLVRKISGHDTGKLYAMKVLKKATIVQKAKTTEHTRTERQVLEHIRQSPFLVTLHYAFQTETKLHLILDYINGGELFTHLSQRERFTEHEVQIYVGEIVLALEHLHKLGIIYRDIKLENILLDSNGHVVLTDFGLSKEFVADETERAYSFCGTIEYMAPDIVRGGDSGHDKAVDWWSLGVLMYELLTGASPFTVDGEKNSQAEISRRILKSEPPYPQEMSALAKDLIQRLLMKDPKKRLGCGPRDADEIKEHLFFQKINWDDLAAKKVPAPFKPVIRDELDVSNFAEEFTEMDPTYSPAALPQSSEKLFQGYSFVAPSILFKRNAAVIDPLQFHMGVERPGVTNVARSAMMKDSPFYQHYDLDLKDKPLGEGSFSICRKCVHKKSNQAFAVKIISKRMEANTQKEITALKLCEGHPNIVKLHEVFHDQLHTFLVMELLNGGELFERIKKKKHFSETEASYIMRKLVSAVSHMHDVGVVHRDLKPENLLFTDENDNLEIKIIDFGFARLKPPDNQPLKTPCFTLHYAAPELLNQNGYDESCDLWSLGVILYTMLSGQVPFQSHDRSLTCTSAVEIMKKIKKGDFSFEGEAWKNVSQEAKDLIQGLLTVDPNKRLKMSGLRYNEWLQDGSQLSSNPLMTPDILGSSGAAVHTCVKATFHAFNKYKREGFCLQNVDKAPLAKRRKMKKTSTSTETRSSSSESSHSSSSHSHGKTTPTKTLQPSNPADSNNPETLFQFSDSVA

Structure (SMILES) | remaining activity at 100 µM (Lck) | remaining activity at 100 µM (SYK) | remaining activity at 100 µM (JNK2) | remaining activity at 100 µM (JAK2) | remaining activity at 100 µM (PKCa) | remaining activity at 100 µM (p38g MAPK) | remaining activity at 100 µM (EPH-A2) | remaining activity at 100 µM (SmMLCK) | remaining activity at 100 µM (PKA) | residual kinase activity, CK2 (CK2) | remaining activity at 100 µM (ERK1) | remaining activity at 100 µM (DYRK1A) | remaining activity at 100 µM (HER4) | remaining activity at 100 µM (PKBb) | remaining activity at 100 µM (IGF-1R) | remaining activity at 100 µM (ERK2) | remaining activity at 100 µM (TTK) | remaining activity at 100 µM (RSK1) | remaining activity at 100 µM (MSK1) | remaining activity at 100 µM (NEK6) | other results
CC(=O)Nc1nc2cc(C(F)(F)F)ccc2s1 [Compound 03-73] | 101% | 74% | 111% | 96% | 111% | 93% | 99% | 71% | 124% | 105 | 83% | 22% | 110% | 104% | 77% | 108% | 86% | 89% | 91% | 119% | remaining activity at 100 µM (p38d MAPK): 52%
CC(=O)Nc1nc2cc(C)ccc2s1 [Compound 03-76] |  |  |  |  |  |  |  |  |  | 75 |  |  |  |  |  |  |  |  |  |  | residual kinase activity, Lck (Lck): 120; residual kinase activity, SYK (SYK): 72; residual kinase activity, JNK2 (JNK2): 105; residual kinase activity, JAK2 (JAK2): 51; residual kinase activity, PKCa (PKCa): 94; residual kinase activity, p38g MAPK (p38g MAPK): 92; residual kinase activity, EPH-A2 (EPH-A2): 93; residual kinase activity, SmMLCK (SmMLCK): 62; residual kinase activity, PKA (PKA): 105; residual kinase activity, ERK1 (ERK1): 91; residual kinase activity, DYRK1A (DYRK1A): 23; residual kinase activity, HER4 (HER4): 85; residual kinase activity, PKBb (PKBb): 91; residual kinase activity, IGF-1R (IGF-1R): 75; residual kinase activity, ERK2 (ERK2): 96; residual kinase activity, TTK (TTK): 49; residual kinase activity, RSK1 (RSK1): 78; residual kinase activity, MSK1 (MSK1): 84; residual kinase activity, NEK6 (NEK6): 107; residual kinase activity, p38d MAPK (p38d MAPK): 85
CC(=O)Nc1nc2cc(F)ccc2s1 [Compound 03-77] | 96% | 82% | 99% | 57% | 101% | 77% | 106% | 66% | 95% | 81 | 90% | 7% | 92% | 93% | 58% | 99% | 64% | 72% | 74% | 96% | remaining activity at 100 µM (p38d MAPK): 76%
O=C(Nc1nc2ccc(O)cc2s1)c1ccncc1 [Compound 08-42] |  |  |  |  |  |  |  |  |  | 50 |  |  |  |  |  |  |  |  |  |  | residual kinase activity, Lck (Lck): 79; residual kinase activity, SYK (SYK): 90; residual kinase activity, JNK2 (JNK2): 90; residual kinase activity, JAK2 (JAK2): 50; residual kinase activity, PKCa (PKCa): 81; residual kinase activity, p38g MAPK (p38g MAPK): 87; residual kinase activity, EPH-A2 (EPH-A2): 77; residual kinase activity, SmMLCK (SmMLCK): 33; residual kinase activity, PKA (PKA): 91; residual kinase activity, ERK1 (ERK1): 84; residual kinase activity, DYRK1A (DYRK1A): 15; residual kinase activity, HER4 (HER4): 40; residual kinase activity, PKBb (PKBb): 52; residual kinase activity, IGF-1R (IGF-1R): 88; residual kinase activity, ERK2 (ERK2): 73; residual kinase activity, TTK (TTK): 32; residual kinase activity, RSK1 (RSK1): 47; residual kinase activity, MSK1 (MSK1): 92; residual kinase activity, NEK6 (NEK6): 75; residual kinase activity, p38d MAPK (p38d MAPK): 65
